Legend:
Test in all cases: relative viability (nuclei count vs DMSO), 5 days (fraction); higher = more cells survive
AGI-6780 + Dasatinib = compound: O=C(Nc1cccc(C(F)(F)F)c1)Nc1cc(S(=O)(=O)NC2CC2)ccc1-c1ccsc1 [AGI-6780] + Cc1nc(Nc2ncc(C(=O)Nc3c(C)cccc3Cl)s2)cc(N2CCN(CCO)CC2)n1 [Dasatinib] (partner 0.075 µM)
Summary of the method: (§1)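 After 5 days of treatment, lung cancer cells in 1536-well plates were fixed and stained in a single step (final 0.05% Triton X-100, 1% formaldehyde, 1 ug/ml Hoechst) and their nuclei counted on 4× images. Treatment had been applied by pin tool the day after seeding as one drug alone or as a fixed anchor-drug dose with five library-drug doses (not always all listed) in √10 steps. Relative viability is the nuclei count of treated wells divided by that of vehicle wells, and values are medians of duplicate plates.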

AGI-6780 + Vorinostat = compound: O=C(Nc1cccc(C(F)(F)F)c1)Nc1cc(S(=O)(=O)NC2CC2)ccc1-c1ccsc1 [AGI-6780] + O=C(CCCCCCC(=O)Nc1ccccc1)NO [Vorinostat] (partner 1 µM)
Summary of the method: as §1

AGI-6780 + Crizotinib = compound: O=C(Nc1cccc(C(F)(F)F)c1)Nc1cc(S(=O)(=O)NC2CC2)ccc1-c1ccsc1 [AGI-6780] + C[C@@H](Oc1cc(-c2cnn(C3CCNCC3)c2)cnc1N)c1c(Cl)ccc(F)c1Cl [Crizotinib] (partner 1 µM)
Summary of the method: as §1

AGI-6780 + Pictilisib = compound: O=C(Nc1cccc(C(F)(F)F)c1)Nc1cc(S(=O)(=O)NC2CC2)ccc1-c1ccsc1 [AGI-6780] + CS(=O)(=O)N1CCN(Cc2cc3nc(-c4cccc5[nH]ncc45)nc(N4CCOCC4)c3s2)CC1 [Pictilisib] (partner 1 µM)
Summary of the method: as §1

Row | Cell Line | relative viability (AGI-6780 + Dasatinib; first compound 0.08 µM) | relative viability (AGI-6780 + Dasatinib; first compound 0.253 µM) | relative viability (AGI-6780 + Dasatinib; first compound 0.8 µM) | relative viability (AGI-6780 + Dasatinib; first compound 2.53 µM) | relative viability (AGI-6780 + Dasatinib; first compound 8 µM) | relative viability (AGI-6780 + Vorinostat; first compound 0.08 µM) | relative viability (AGI-6780 + Vorinostat; first compound 0.253 µM) | relative viability (AGI-6780 + Vorinostat; first compound 0.8 µM) | relative viability (AGI-6780 + Vorinostat; first compound 2.53 µM) | relative viability (AGI-6780 + Vorinostat; first compound 8 µM) | relative viability (AGI-6780 + Crizotinib; first compound 0.08 µM) | relative viability (AGI-6780 + Crizotinib; first compound 0.253 µM) | relative viability (AGI-6780 + Crizotinib; first compound 0.8 µM) | relative viability (AGI-6780 + Crizotinib; first compound 2.53 µM) | relative viability (AGI-6780 + Crizotinib; first compound 8 µM) | relative viability (AGI-6780 + Pictilisib; first compound 0.08 µM) | relative viability (AGI-6780 + Pictilisib; first compound 0.253 µM) | relative viability (AGI-6780 + Pictilisib; first compound 0.8 µM) | relative viability (AGI-6780 + Pictilisib; first compound 2.53 µM) | relative viability (AGI-6780 + Pictilisib; first compound 8 µM)
1 | PC-14 | 0.233 | 0.256 | 0.308 | 0.276 | 0.24 | 0.919 | 0.708 | 0.845 | 0.779 | 0.799 | 0.902 | 0.867 | 0.971 | 0.851 | 0.928 | 0.927 | 0.681 | 0.893 | 0.55 | 0.857
2 | RERF-LC-KJ | 0.895 | 0.93 | 0.822 | 0.511 | 0.667 | 0.784 | 0.724 | 0.795 | 0.596 | 0.697 | 0.769 | 0.879 | 0.808 | 0.791 | 0.792 | 0.559 | 0.537 | 0.604 | 0.418 | 0.467
3 | SK-LU-1 | 0.172 | 0.183 | – | 0.135 | 0.17 | 0.816 | 0.798 | 0.534 | 0.732 | 0.786 | 1.01 | 0.904 | 0.629 | 0.936 | 0.878 | 0.496 | 0.57 | 0.437 | 0.435 | 0.752
4 | SK-MES-1 | 0.379 | 0.428 | 0.367 | 0.24 | 0.338 | 1.21 | 1.17 | 1 | 1.03 | 0.994 | 0.942 | 0.964 | 0.935 | 0.871 | 0.953 | 0.365 | 0.367 | 0.338 | 0.273 | 0.344
5 | SW 1573 | 0.467 | 0.516 | 0.442 | – | 0.531 | 0.792 | 0.75 | 0.999 | – | 0.972 | 0.786 | 0.883 | 0.912 | 0.681 | 0.815 | 0.506 | 0.518 | 0.514 | 0.374 | 0.543
6 | UMC-11 | 0.474 | 0.524 | 0.662 | – | 0.488 | 0.407 | 0.426 | 0.447 | – | 0.434 | 0.754 | 0.606 | 0.676 | – | 0.751 | 0.822 | 0.837 | 1.08 | – | 0.887
